Laboratory results from patent US10772893B2, “2-(morpholin-4-yl)-1,7-naphthyridines” (BAYER PHARMA AKTIENGESELLSCHAFT, priority 2014, dated 2020).

Test system: HeLa cells
Test: Proliferation assay, crystal violet staining
Conditions: Homo sapiens, 96 h, read-out: Inhibition of HeLa cell proliferation, HeLa cells, 4 days incubation

`Cc1ccnc(F)c1-c1cc(N2CCOC[C@H]2C)nc2c(-c3ccn[nH]3)nccc12` [Example 90, 4-(2-fluoro-4-methylpyridin-3-yl)-2-[(3R)-3-methylmorpholin-4-yl]-8-(1H-pyrazol-5-yl)-1,7-naphthyridine] and `Cc1cc(-c2cc(N3CCOC[C@H]3C)nc3c(-c4ccn[nH]4)nccc23)cnc1F` [Example 92, 4-(6-fluoro-5-methylpyridin-3-yl)-2-[(3R)-3-methylmorpholin-4-yl]-8-(1H-pyrazol-5-yl)-1,7-naphthyridine] are within 1.5-fold of each other in IC50: 92 nM for the first, 117 nM for the second.

First: C[C@@H]1COCCN1c1cc(-c2cccn2C)c2ccnc(-c3ccn[nH]3)c2n1 [Example 91, 2-[(3R)-3-methylmorpholin-4-yl]-4-(1-methyl-1H-pyrrol-2-yl)-8-(1H-pyrazol-5-yl)-1,7-naphthyridine]
Second: C[C@@H]1COCCN1c1cc(-c2ccc(F)nc2)c2ccnc(-c3ccn[nH]3)c2n1 [Example 94, 4-(6-fluoropyridin-3-yl)-2-[(3R)-3-methylmorpholin-4-yl]-8-(1H-pyrazol-5-yl)-1,7-naphthyridine]
The IC50 of the first is 2.5-fold lower: 108 nM for the first, 268 nM for the second. The first is the more potent here.

`Cc1ccc(-c2cc(N3CCOC[C@H]3C)nc3c(-c4ccn[nH]4)nccc23)c(F)n1` [Example 93, 4-(2-fluoro-6-methylpyridin-3-yl)-2-[(3R)-3-methylmorpholin-4-yl]-8-(1H-pyrazol-5-yl)-1,7-naphthyridine] and `Cc1nc(F)ccc1-c1cc(N2CCOC[C@H]2C)nc2c(-c3ccn[nH]3)nccc12` [Example 97, 4-(6-fluoro-2-methylpyridin-3-yl)-2-[(3R)-3-methylmorpholin-4-yl]-8-(1H-pyrazol-5-yl)-1,7-naphthyridine] are within 1.5-fold of each other in IC50: 179 nM for the first, 252 nM for the second.

`COc1ccc(-c2cc(N3CCOC[C@H]3C)nc3c(-c4ccn[nH]4)nccc23)cn1` [Example 95, 4-(6-methoxypyridin-3-yl)-2-[(3R)-3-methylmorpholin-4-yl]-8-(1H-pyrazol-5-yl)-1,7-naphthyridine] and `COc1ncc(-c2cc(N3CCOC[C@H]3C)nc3c(-c4ccn[nH]4)nccc23)cc1C` [Example 96, 4-(6-methoxy-5-methylpyridin-3-yl)-2-[(3R)-3-methylmorpholin-4-yl]-8-(1H-pyrazol-5-yl)-1,7-naphthyridine] are within 1.5-fold of each other in IC50: 211 nM for the first, 169 nM for the second.

`C[C@@H]1COCCN1c1cc(-c2cc(C(F)(F)F)nn2C)c2ccnc(-c3ccn[nH]3)c2n1` [Example 98, 2-[(3R)-3-methylmorpholin-4-yl]-4-[1-methyl-3-(trifluoromethyl)-1H-pyrazol-5-yl]-8-(1H-pyrazol-5-yl)-1,7-naphthyridine] and `CCn1nc(C(F)(F)F)cc1-c1cc(N2CCOC[C@H]2C)nc2c(-c3ccn[nH]3)nccc12` [Example 119, 4-[1-ethyl-3-(trifluoromethyl)-1H-pyrazol-5-yl]-2-[(3R)-3-methylmorpholin-4-yl]-8-(1H-pyrazol-5-yl)-1,7-naphthyridine] are within 1.5-fold of each other in IC50: 440 nM for the first, 425 nM for the second.

Going from `Cc1ccsc1-c1cc(N2CCOC[C@H]2C)nc2c(-c3ccn[nH]3)nccc12` [Example 99, 2-[(3R)-3-methylmorpholin-4-yl]-4-(3-methyl-2-thienyl)-8-(1H-pyrazol-5-yl)-1,7-naphthyridine] to `C[C@@H]1COCCN1c1cc(-c2sccc2Cl)c2ccnc(-c3ccn[nH]3)c2n1` [Example 102, 4-(3-chloro-2-thienyl)-2-[(3R)-3-methylmorpholin-4-yl]-8-(1H-pyrazol-5-yl)-1,7-naphthyridine], the IC50 rises from 400 nM to 604 nM (1.5-fold). The first is the more potent here.

Going from `Cc1ccc(-c2cc(N3CCOC[C@H]3C)nc3c(-c4ccn[nH]4)nccc23)s1` [Example 100, 2-[(3R)-3-methylmorpholin-4-yl]-4-(5-methyl-2-thienyl)-8-(1H-pyrazol-5-yl)-1,7-naphthyridine] to `C[C@@H]1COCCN1c1cc(-c2ccns2)c2ccnc(-c3ccn[nH]3)c2n1` [Example 121, 2-[(3R)-3-methylmorpholin-4-yl]-8-(1H-pyrazol-5-yl)-4-(1,2-thiazol-5-yl)-1,7-naphthyridine], the IC50 falls from 950 nM to 352 nM (2.7-fold). The second is the more potent here.

`Cc1cscc1-c1cc(N2CCOC[C@H]2C)nc2c(-c3ccn[nH]3)nccc12` [Example 101, 2-[(3R)-3-methylmorpholin-4-yl]-4-(4-methyl-3-thienyl)-8-(1H-pyrazol-5-yl)-1,7-naphthyridine] and `Cc1sccc1-c1cc(N2CCOC[C@H]2C)nc2c(-c3ccn[nH]3)nccc12` [Example 103, 2-[(3R)-3-methylmorpholin-4-yl]-4-(2-methyl-3-thienyl)-8-(1H-pyrazol-5-yl)-1,7-naphthyridine] are within 1.5-fold of each other in IC50: 341 nM for the first, 374 nM for the second.

`C[C@@H]1COCCN1c1cc(-c2ccnc3[nH]ccc23)c2ccnc(-c3ccn[nH]3)c2n1` [Example 104, 2-[(3R)-3-methylmorpholin-4-yl]-8-(1H-pyrazol-5-yl)-4-(1H-pyrrolo[2,3-b]pyridin-4-yl)-1,7-naphthyridine] and `COc1nccc(-c2cc(N3CCOC[C@H]3C)nc3c(-c4ccn[nH]4)nccc23)c1Cl` [Example 106, 4-(3-chloro-2-methoxypyridin-4-yl)-2-[(3R)-3-methylmorpholin-4-yl]-8-(1H-pyrazol-5-yl)-1,7-naphthyridine] are within 1.5-fold of each other in IC50: 499 nM for the first, 434 nM for the second.

First: Cc1noc(C)c1-c1cc(N2CCOC[C@H]2C)nc2c(-c3ccn[nH]3)nccc12 [Example 105, 4-(3,5-dimethyl-1,2-oxazol-4-yl)-2-[(3R)-3-methylmorpholin-4-yl]-8-(1H-pyrazol-5-yl)-1,7-naphthyridine]
Second: Cc1cc(-c2cc(N3CCOC[C@H]3C)nc3c(-c4ccn[nH]4)nccc23)on1 [Example 112, 2-[(3R)-3-methylmorpholin-4-yl]-4-(3-methyl-1,2-oxazol-5-yl)-8-(1H-pyrazol-5-yl)-1,7-naphthyridine]
The IC50 of the first is 10-fold higher: 1000 nM for the first, 99.5 nM for the second. The second is the more potent here.

`C[C@@H]1COCCN1c1cc(C2CCOCC2)c2ccnc(-c3ccn[nH]3)c2n1` [Example 107, 2-[(3R)-3-methylmorpholin-4-yl]-8-(1H-pyrazol-5-yl)-4-(tetrahydro-2H-pyran-4-yl)-1,7-naphthyridine] and `CC1CCN(c2cc(N3CCOC[C@H]3C)nc3c(-c4ccn[nH]4)nccc23)CC1` [Example 109, 2-[(3R)-3-methylmorpholin-4-yl]-4-(4-methylpiperidin-1-yl)-8-(1H-pyrazol-5-yl)-1,7-naphthyridine] are within 1.5-fold of each other in IC50: 306 nM for the first, 298 nM for the second.

First: C[C@@H]1COCCN1c1cc(C2=CCSCC2)c2ccnc(-c3ccn[nH]3)c2n1 [Example 108, 4-(3,6-dihydro-2H-thiopyran-4-yl)-2-[(3R)-3-methylmorpholin-4-yl]-8-(1H-pyrazol-5-yl)-1,7-naphthyridine]
Second: C[C@@H]1COCCN1c1cc(-c2cnc3n2CCC3)c2ccnc(-c3ccn[nH]3)c2n1 [Example 118, 4-(6,7-dihydro-5H-pyrrolo[1,2-a]imidazol-3-yl)-2-[(3R)-3-methylmorpholin-4-yl]-8-(1H-pyrazol-5-yl)-1,7-naphthyridine]
The IC50 of the first is 2.7-fold higher: 456 nM for the first, 171 nM for the second. The second is the more potent here.

`C[C@@H]1COCCN1c1cc(-c2ccnn2C(C)(C)C)c2ccnc(-c3ccn[nH]3)c2n1` [Example 110, 4-(1-tert-butyl-1H-pyrazol-5-yl)-2-[(3R)-3-methylmorpholin-4-yl]-8-(1H-pyrazol-5-yl)-1,7-naphthyridine] and `CC(C)n1nccc1-c1cc(N2CCOC[C@H]2C)nc2c(-c3ccn[nH]3)nccc12` [Example 124, 4-(1-isopropyl-1H-pyrazol-5-yl)-2-[(3R)-3-methylmorpholin-4-yl]-8-(1H-pyrazol-5-yl)-1,7-naphthyridine] are within 1.5-fold of each other in IC50: 206 nM for the first, 156 nM for the second.

Compared with `CCn1nc(C)cc1-c1cc(N2CCOC[C@H]2C)nc2c(-c3ccn[nH]3)nccc12` [Example 113, 4-(1-ethyl-3-methyl-1H-pyrazol-5-yl)-2-[(3R)-3-methylmorpholin-4-yl]-8-(1H-pyrazol-5-yl)-1,7-naphthyridine], `CCCn1nccc1-c1cc(N2CCOC[C@H]2C)nc2c(-c3ccn[nH]3)nccc12` [Example 117, 2-[(3R)-3-methylmorpholin-4-yl]-4-(1-propyl-1H-pyrazol-5-yl)-8-(1H-pyrazol-5-yl)-1,7-naphthyridine] is 1.8-fold higher in IC50: 122 nM for the first, 225 nM for the second. The first is the more potent here.

`Cc1cnn(C)c1-c1cc(N2CCOC[C@H]2C)nc2c(-c3ccn[nH]3)nccc12` [Example 114, 4-(1,4-dimethyl-1H-pyrazol-5-yl)-2-[(3R)-3-methylmorpholin-4-yl]-8-(1H-pyrazol-5-yl)-1,7-naphthyridine] and `CSc1ccc(-c2cc(N3CCOC[C@H]3C)nc3c(-c4ccn[nH]4)nccc23)c(C)n1` [Example 115, 4-[2-methyl-6-(methylsulfanyl)pyridin-3-yl]-2-[(3R)-3-methylmorpholin-4-yl]-8-(1H-pyrazol-5-yl)-1,7-naphthyridine] are within 1.5-fold of each other in IC50: 177 nM for the first, 199 nM for the second.

Compared with `Cc1nc(S(C)(=N)=O)ccc1-c1cc(N2CCOC[C@H]2C)nc2c(-c3ccn[nH]3)nccc12` (stereo partly drawn) [Example 116, 4-[2-methyl-6-(S-methylsulfonimidoyl)pyridin-3-yl]-2-[(3R)-3-methylmorpholin-4-yl]-8-(1H-pyrazol-5-yl)-1,7-naphthyridine], `C[C@@H]1COCCN1c1cc(-c2ccc(F)cc2F)c2ccnc(-c3ccn[nH]3)c2n1` [Example 123, 4-(2,4-difluorophenyl)-2-[(3R)-3-methylmorpholin-4-yl]-8-(1H-pyrazol-5-yl)-1,7-naphthyridine] is 1.5-fold higher in IC50: 284 nM for the first, 431 nM for the second. The first is the more potent here.

Going from `COC(=O)c1ccc(-c2cc(N3CCOC[C@H]3C)nc3c(-c4ccn[nH]4)nccc23)[nH]1` [Example 120, methyl 5-{2-[(3R)-3-methylmorpholin-4-yl]-8-(1H-pyrazol-5-yl)-1,7-naphthyridin-4-yl}-1H-pyrrole-2-carboxylate] to `C[C@@H]1COCCN1c1cc(-c2ccccc2N(C)C)c2ccnc(-c3ccn[nH]3)c2n1` [Example 122, N,N-dimethyl-2-{2-[(3R)-3-methylmorpholin-4-yl]-8-(1H-pyrazol-5-yl)-1,7-naphthyridin-4-yl}aniline], the IC50 rises from 354 nM to 706 nM (2-fold). The first is the more potent here.

`CC(C)COP(C)(=O)c1cc(N2CCOC[C@H]2C)nc2c(-c3ccn[nH]3)nccc12` (stereo partly drawn) [Example 127, isobutyl methyl{2-[(3R)-3-methylmorpholin-4-yl]-8-(1H-pyrazol-5-yl)-1,7-naphthyridin-4-yl}phosphinate] and `C[C@@H]1COCCN1c1cc(C(C)(C)O)c2ccnc(-c3ccn[nH]3)c2n1` [Example 128, 2-{2-[(3R)-3-methylmorpholin-4-yl]-8-(1H-pyrazol-5-yl)-1,7-naphthyridin-4-yl}propan-2-ol] are within 1.5-fold of each other in IC50: 578 nM for the first, 770 nM for the second.
